In US8008488B2 (Abbott GmbH & Co. KG, priority 2003, dated 2011):
Where a name gives a salt, the structure may show the parent alone.

Assays:
[1] = target: T1, human dopamine D2L receptors (long isoform) (Homo sapiens, UniProt P14416); experiment: Dopamine D2L receptor binding, displacement of [125I]-iodospiperone; details: *Ki(D2L)/Ki(D3), HEK-293 membranes, 0.01 nM [125I]-iodospiperone
T1 construct: expressed in transfected cells
Procedure, shortened: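 Triplicate incubations ran 60 min at 25 °C in pH 7.4 Tris buffer with 120 mM NaCl, 5 mM KCl, 2 mM CaCl2, 2 mM MgCl2 and 0.1% BSA. Bound radioactivity was collected by GF/B filtration and counted as dpm. Inhibition curves were fitted by iterative nonlinear regression.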

[2] = target: T2, human dopamine D3 receptors (Homo sapiens, UniProt P35462); experiment: Dopamine D3 receptor binding, displacement of [125I]-iodosulpride; details: membranes from HEK-293 cells with stably expressed human D3 receptors, 0.1 nM [125I]-iodosulpride
T2 construct: expressed in transfected cells
T2 sequence (P35462 whole entry): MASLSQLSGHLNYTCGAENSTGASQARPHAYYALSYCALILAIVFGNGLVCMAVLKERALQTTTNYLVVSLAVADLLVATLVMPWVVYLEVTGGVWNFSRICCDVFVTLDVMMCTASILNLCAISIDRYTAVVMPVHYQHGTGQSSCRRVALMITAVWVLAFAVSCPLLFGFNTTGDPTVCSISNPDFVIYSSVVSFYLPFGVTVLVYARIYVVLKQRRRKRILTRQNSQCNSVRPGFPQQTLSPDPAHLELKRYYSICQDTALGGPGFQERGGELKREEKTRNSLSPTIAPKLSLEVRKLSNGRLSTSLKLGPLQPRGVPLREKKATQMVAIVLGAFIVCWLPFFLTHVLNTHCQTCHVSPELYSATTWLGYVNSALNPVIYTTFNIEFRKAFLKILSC

T1 sequence (P14416 whole entry, canonical isoform): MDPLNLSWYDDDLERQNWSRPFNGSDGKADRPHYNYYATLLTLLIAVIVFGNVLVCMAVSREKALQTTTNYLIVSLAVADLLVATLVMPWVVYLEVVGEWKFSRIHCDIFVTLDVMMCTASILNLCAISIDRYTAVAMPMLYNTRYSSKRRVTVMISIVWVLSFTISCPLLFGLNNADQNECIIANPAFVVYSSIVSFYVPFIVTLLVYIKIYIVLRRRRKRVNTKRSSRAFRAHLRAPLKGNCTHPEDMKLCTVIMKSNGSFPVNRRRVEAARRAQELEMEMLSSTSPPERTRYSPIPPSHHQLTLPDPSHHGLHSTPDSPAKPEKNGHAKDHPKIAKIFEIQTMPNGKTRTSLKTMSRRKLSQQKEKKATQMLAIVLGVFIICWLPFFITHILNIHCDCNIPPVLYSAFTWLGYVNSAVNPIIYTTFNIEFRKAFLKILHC

Structure (SMILES) | Selectivity D3 vs. D2L* [1] | Ki [2]
CCCc1cc(N2CCN(CCCCn3ccc(-c4ccccc4C)nc3=O)CC2)nc(C(C)(C)C)n1 [Example 57, 4-(2-tert-Butyl-6-propylpyrimidin-4-yl)-1-[4-(2-oxo-4-(o-tolyl)-2H-pyrimidin-1-yl)butyl]-piperazin-1-ium fumarate] | 111 | 0.96 nM
Cc1cn(CCCCN2CCN(c3cc(C4CCC4)nc(C(C)(C)C)n3)CC2)c(=O)nc1O [Example 22, 1-{4-[4-(2-tert-Butyl-6-cyclobutylpyrimidin-4-yl)piperazin-1-yl]butyl}-4-hydroxy-5-methylpyrimidin-2(1H)-one] | 77 | 1.16 nM
CCCc1cc(N2CCN(C/C=C(\C)Cn3cc(C)c(=O)[nH]c3=O)CC2)nc(C(C)(C)C)n1 [Example 65] | 62 | 3.31 nM
Cc1cn(CCCCN2CCN(c3cc(C(F)(F)F)nc(C(C)(C)C)n3)CC2)c(=O)nc1S [Example 2, 1-(4-{4-[2-tert-Butyl-6-(trifluoromethyl)pyrimidin-4-yl]piperazin-1-yl}butyl)-4-mercapto-5-methylpyrimidin-2(1H)-one] | 88 | 3.23 nM
